Numbers after ± are expanded uncertainties.
Settings: Liquid

CCC [propane]
Settings	vapor or sublimation pressure [kPa]
277.17 K	536 ± 1
283.22 K	638 ± 2
288.26 K	734 ± 2
293.27 K	838 ± 2
298.3 K	955 ± 2
302.27 K	1055 ± 2
308.8 K	1236 ± 2
311.8 K	1326 ± 2
313.24 K	1370 ± 2
318.22 K	1537 ± 3
323.22 K	1716 ± 3
328.26 K	1911 ± 3
333.29 K	2120 ± 3
338.31 K	2346 ± 4
343.26 K	2591 ± 4
348.31 K	2852 ± 5
353.41 K	3134 ± 5

FCF [difluoromethane]
Settings	vapor or sublimation pressure [kPa]
283.19 K	1111 ± 2
288.21 K	1286 ± 2
293.24 K	1481 ± 3
298.26 K	1697 ± 3
303.27 K	1935 ± 3
308.28 K	2197 ± 4
313.3 K	2485 ± 4
318.28 K	2801 ± 5
323.3 K	3147 ± 5
328.31 K	3526 ± 6
343.26 K	4892 ± 8

From the NIST ThermoML archive (doi:10.1021/je020115d)
